Source: patent publication US20230053688A1, “METHODS TO ALTER LATENCY IN EBV+ MALIGNANCIES” (Cornell University, priority 2020, published 2023)
Structures can show the parent of a compound that is named as a salt. Where two headings read alike, the source gives them in different places.

Tested on: LMP1 expression in Kem I cells
Test: microbe, parasite or virus in culture
Type: cell-based, EBV
Conditions: for Average LMP1 Fold Increase / Replicate 1-LMP1 Fold Increase / Replicate 2-LMP1 Fold Increase: Kem I cells, 48 hours; for fold induction at 2.5 µM / fold induction at 1 µM: human gammaherpesvirus 4, 48 h
[1] = 2.5 uM, average of replicates 1 and 2
[2] = 2.5 uM, fold change in LMP1 transcript vs vehicle
[3] = 1 uM, fold change in LMP1 transcript vs vehicle
[4] = read-out: Average LMP1 Fold Increase, Kem I cells, 2.5 uM, 48 hours, average of replicates 1 and 2
[5] = read-out: Replicate 1-LMP1 Fold Increase, Kem I cells, 2.5 uM, 48 hours, fold change in LMP1 transcript vs vehicle
[6] = read-out: Replicate 2-LMP1 Fold Increase, Kem I cells, 2.5 uM, 48 hours, fold change in LMP1 transcript vs vehicle
[7] = read-out: Average LMP1 Fold Increase, Kem I cells, dose 2.5 uM, 48 hours, LMP1 transcript by in-well qRT-PCR, average of the two replicates
[8] = read-out: Replicate 1-LMP1 Fold Increase, Kem I cells, dose 2.5 uM, 48 hours, LMP1 transcript by in-well qRT-PCR, screen replicate 1
[9] = read-out: Replicate 2-LMP1 Fold Increase, Kem I cells, dose 2.5 uM, 48 hours, LMP1 transcript by in-well qRT-PCR, screen replicate 2

| Molecule | Average LMP1 Fold Increase [1] | Replicate 1-LMP1 Fold Increase [2] | Replicate 2-LMP1 Fold Increase [2] | fold induction at 2.5 µM [4] | fold induction at 2.5 µM [5] | fold induction at 2.5 µM [6] | other results |
| --- | --- | --- | --- | --- | --- | --- | --- |
| Nc1ncnc2c1c(-c1cccc(OCc3ccccc3)c1)cn2C1CC(CN2CCCC2)C1 (stereo not shown) [NVP-ADW742] | 0.40 | 0.27 | 0.53 | – | – | – | – |
| CCCC(=O)Nc1cccc(NC(=O)c2ccccc2Br)c1 [ML161] | 0.83 | 1.11 | 0.54 | – | – | – | – |
| C[C@H]1COC2(CCN(c3nc(=O)c4cc(C(F)(F)F)cc([N+](=O)[O-])c4s3)CC2)O1 (racemic) [BTZ043 Racemate] | 0.64 | 0.62 | 0.67 | – | – | – | – |
| CCc1c2c(nc3ccc(OC(=O)N4CCC(N5CCCCC5)CC4)cc13)-c1cc3c(c(=O)n1C2)COC(=O)[C@]3(O)CC [Irinotecan] | 0.59 | – | – | – | – | – | – |
| Nc1ccn([C@@H]2O[C@H](CO)[C@@H](O)[C@@H]2O)c(=O)n1 [Cytarbine] | – | – | – | – | – | – | Average LMP1 Fold Increase (1 uM, average of replicates 1 and 2): 2.31; Replicate 1-LMP1 Fold Increase [3]: 2.61; Replicate 2-LMP1 Fold Increase [3]: 2.01 |
| COCCOc1ccc2c(c1)ncn2-c1ccc2cccc(N3CCC(N)CC3)c2n1 [CP-673451] | – | – | – | 0.49 | 0.52 | 0.45 | – |
| Maraviroc | 1.08 | 0.44 | 1.72 | – | – | – | – |
| CN[C@H]1CC[C@@H](c2ccc(Cl)c(Cl)c2)c2ccccc21 [Sertraline HCl] | – | – | – | 1.07 | 0.81 | 1.33 | – |
| Nc1ccc(C(=O)O)c(O)c1 [Sodium 4-Aminosalicylate] | – | – | – | 0.36 | 0.19 | 0.53 | – |
| O=C(C[S+]([O-])Cc1ccco1)NC/C=C\COc1cc(CN2CCCCC2)ccn1 (stereo not shown) [Lafutidine] | – | – | – | 0.85 | 0.94 | 0.76 | – |
| Cc1ccccc1C(=O)Nc1ccc(C(=O)N2CCCC(N(C)C)c3ccccc32)cc1 (stereo not shown) [Mozavaptan] | – | – | – | 0.61 | 0.32 | 0.9 | – |
| COc1cc(Nc2ncc(F)c(Nc3ccc4c(n3)N(COP(=O)(O)O)C(=O)C(C)(C)O4)n2)cc(OC)c1OC [Fostamatinib (R788)] | 0.67 | 0.24 | 1.11 | – | – | – | – |
| CN1CC(=O)N2[C@H](c3ccc4c(c3)OCO4)c3[nH]c4ccccc4c3C[C@@H]2C1=O [Tadalafil] | – | – | – | – | – | – | fold induction at 2.5 µM [7]: 3.06; fold induction at 2.5 µM [8]: 3.8; fold induction at 2.5 µM [9]: 2.32 |
| C[C@H](Cn1cnc2c(N)ncnc21)OCP(=O)(O)O [Tenofovir] | – | – | – | – | – | – | Average LMP1 Fold Increase (dose 2.5 uM, LMP1 transcript by in-well qRT-PCR, average of the two replicates): 0.18 fold; Replicate 1-LMP1 Fold Increase (dose 2.5 uM, LMP1 transcript by in-well qRT-PCR, screen replicate 1): 0.18 fold; Replicate 2-LMP1 Fold Increase (dose 2.5 uM, LMP1 transcript by in-well qRT-PCR, screen replicate 2): 0.19 fold |
| N#CSc1cc(SC#N)c(N)nc1N [PR-619] | 0.31 | 0.23 | 0.39 | – | – | – | – |
| CC(C)c1cc(-c2n[nH]c(=O)n2-c2ccc3c(ccn3C)c2)c(O)cc1O [Ganetespib] | – | – | – | – | – | – | fold induction at 1 µM (read-out: Average LMP1 Fold Increase, Kem I cells, 1 uM, 48 hours, average of replicates 1 and 2): 23.4; fold induction at 1 µM (read-out: Replicate 1-LMP1 Fold Increase, Kem I cells, 1 uM, 48 hours, fold change in LMP1 transcript vs vehicle): 8.07; fold induction at 1 µM (read-out: Replicate 2-LMP1 Fold Increase, Kem I cells, 1 uM, 48 hours, fold change in LMP1 transcript vs vehicle): 38.8 |
| CCC(COC(=O)c1cc(OC)c(OC)c(OC)c1)(c1ccccc1)N(C)C (stereo not shown) [Trimebutine] | – | – | – | – | – | – | fold induction at 2.5 µM [7]: 1.37; fold induction at 2.5 µM [8]: 2.11; fold induction at 2.5 µM [9]: 0.63 |
| COc1ccc([C@]2(C#N)CC[C@@H](C(=O)O)CC2)cc1OC1CCCC1 [Cilomilast] | – | – | – | 1.06 | 0.95 | 1.18 | – |
| COc1ccc2c(c1)c(CC(=O)N1CCOCC1)c(C)n2C(=O)c1ccc(Cl)cc1 [BML-190] | 0.77 | 1.01 | 0.53 | – | – | – | – |
| O=C(O[C@H]1C[C@H]2CC[C@@H](C1)[N+]21CCCC1)C(O)(c1ccccc1)c1ccccc1 [Trospium chloride] | – | – | – | – | – | – | fold induction at 2.5 µM [7]: 0.35; fold induction at 2.5 µM [8]: 0.33; fold induction at 2.5 µM [9]: 0.37 |
